The text below walks through data of patent US9963462B2 (priority 2015, dated 2018).

In assay [1] the test system is BH4 levels in SK-N-BE (2) cells. Description: SKN-N-BE (2) cellular assay, BH4 levels by LC-MS. The assay is classed as cell-based. Particulars: Homo sapiens, SKNBE2, read-out: SK-N-BE(2) IC50, SK-N-BE (2) cells, BH4 levels by LC-MS.
Experimental: SKN-N-BE(2) Cellular Assay: SK-N-BE (2) cells were seeded in sterile, 96-well plates and incubated for 12-24 hours at 37° C. with 5% CO2 supply. Media was removed and fresh DMEM/F-12 media (containing Glutamine & Pen/Strep but no FBS) was added. Compounds (at different concentrations) were added to different wells. The plates were then incubated for 6-48 hours at 37° C. with 5% CO2 supply. Plates were then centrifuged and the supernatant was removed. The plates were then optionally washed once with PBS. They were then sealed and stored at −80° C. or immediately used. The cells were lysed and the level of BH4 was assessed by LC-MS.
Compounds were assayed for SPR inhibitory activity using a SKN-N-BE (2) cellular assay according to the following procedure. SK-N-BE (2) cells were seeded in sterile, 96-well plates and incubated for 12-24 hours at 37° C. with 5% CO2 supply. Media was removed and fresh DMEM/F-12 media (containing Glutamine & Pen/Strep but no FBS) was added. Compounds (at different concentrations) were added to different wells. The plates were then incubated for 6-48 hours at 37° C. with 5% CO2 supply. Plates were then centrifuged and the supernatant was removed. The plates were then optionally washed once with PBS. They were then sealed and stored at −80° C. or immediately used in the next step. The cells were lysed and the levels of BH4 were assessed by LC-MS.
Assay [2] addresses SNAP-hSPR (sepiapterin reductase, SPR) (Homo sapiens, UniProt P35270). Description: biochemical. Format: binding. To be noted: terbium labelled SNAP-hSPR / SSZ labelled SNAP-EGFP; read-out: hTR-FRET IC50.
The subject of assay [3] is BH4 production in human peripheral blood mononuclear cells (PBMCs). Description: hPBMC assay, inhibition of BH4 production by LC-MS (anti-CD3/anti-CD28 stimulated). Format: cell-based. To be noted: PBMC, read-out: hPBMC IC50.
Experimental: hPBMC Assay: PBMCs were either purchased or isolated from fresh human blood and used either as a fresh preparation or frozen for later use. The assay system was prepared by pre-treating the assay plates overnight with a solution containing anti-human CD3 antibody. Human PBMCs were suspended in assay medium and plated into the assay plates at a density of 1-4×10^5 cells per well. The desired concentration of the test compound was added to each well. A solution of human anti-CD28 antibody was also added to each well. Plates were incubated for 12-48 hours at 37° C. and 5% CO2. Assay plates were centrifuged for 5-15 minutes at 1-3000 RMP and supernatants were removed. The cells were lysed, sealed and used directly or frozen at −80° C. LC-MS was used to quantify the amount of inhibition of BH4 production.
PBMCs were either purchased or isolated from fresh human blood and used either as a fresh preparation or frozen for later use. The assay system was prepared by pre-treating the assay plates overnight with a solution containing anti-human CD3 antibody. Human PBMCs were suspended in assay medium and plated into the assay plates at a density of 1-4×10^5 cells per well. The desired concentration of the test compound was added to each well. A solution of human anti-CD28 antibody was also added to each well. Plates are incubated for 12-48 hours at 37° C. and 5% CO2. Assay plates were centrifuged for 5-15 minutes at 1-3000 RMP and supernatants were removed. The cells were lysed, sealed and used directly or frozen at −80° C.

Sequence of SNAP-hSPR (sepiapterin reductase, SPR) (P35270 whole entry): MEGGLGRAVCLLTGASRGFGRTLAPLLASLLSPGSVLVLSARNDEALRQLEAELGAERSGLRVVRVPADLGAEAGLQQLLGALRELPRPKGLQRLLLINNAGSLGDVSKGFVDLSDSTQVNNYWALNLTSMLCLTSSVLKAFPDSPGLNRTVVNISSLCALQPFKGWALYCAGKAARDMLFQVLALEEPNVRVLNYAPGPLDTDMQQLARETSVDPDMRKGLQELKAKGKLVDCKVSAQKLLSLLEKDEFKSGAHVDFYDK

As a reminder, the IC50 is the midpoint of a concentration-inhibition curve. In the case of `Cc1c(C(=O)N2CCC(C)(C#N)CC2)cnn1-c1nn2cccc2c(=O)[nH]1` [Q-0800], the values for the 50% inhibitory concentration (IC50) in assay [1], in assay [2] and in assay [3] were 600 nM, 2 nM and 47 nM, respectively.
As for `Cc1c(C(=O)N2CCC2)cnn1-c1nn2cccc2c(=O)[nH]1` [Q-0794], the IC50 in assay [1] stood at 3500 nM; in assay [2] it was 10 nM; in assay [3] it was 410 nM.
For the compound `Cc1c(C(=O)N2CC(F)(F)C2)cnn1-c1nn2cccc2c(=O)[nH]1` [Q-0789], the IC50 in assay [1] turned out to be 2500 nM; in assay [2] it was 8 nM; in assay [3] it was 440 nM.
For `Cc1c(C(=O)N2CC3(CSC3)C2)cnn1-c1nn2cccc2c(=O)[nH]1` [Q-0822], the IC50 in assay [1] turned out to be 400 nM; in assay [2], 2 nM; in assay [3] it was 130 nM.
Taken in the same sequence, the figures for `Cc1c(C(=O)N2CCN(CC(F)(F)F)CC2)cnn1-c1nc2c(c(=O)[nH]1)CCC2` [Q-0737] were 200 nM, 5 nM and 37 nM.
On to `CCC(C#N)C1CCN(C(=O)c2cnn(-c3nc4c(c(=O)[nH]3)CCC4)c2C)CC1` (stereo not shown) [Q-0572], for which the IC50 in assay [1] was 36 nM; in assay [2], 2 nM; in assay [3], 24 nM.
With `Cc1c(C(=O)N2CCC3(CC2)CC3(F)F)cnn1-c1nn2cccc2c(=O)[nH]1` [Q-0761], the IC50 in assay [1] came to 200 nM; in assay [2], 2 nM; in assay [3], 140 nM.
For `Cc1c(C(=O)N2CC3CCCC(C2)C3(O)C(F)(F)F)cnn1-c1nn2cccc2c(=O)[nH]1` (stereo not shown) [Q-1109], the values for the IC50 in assay [2] and in assay [3] were 1 nM and 46 nM, respectively.
Take `Cc1nc(C)c(S(=O)(=O)N2CCN(C(=O)c3cnn(-c4nn5cccc5c(=O)[nH]4)c3C)CC2)s1` [Q-1805]: the IC50 was 1 nM in assay [2] and 130 nM in assay [3].
For `Cc1c(C(=O)N2CC3(C2)CC(F)(F)C3)cnn1-c1nc2[nH]ccc2c(=O)[nH]1` [Q-1263], the IC50 in assay [2] is 100 nM; in assay [3], 370 nM.
With `Cc1c(C(=O)N2CCN(S(=O)(=O)c3cccc(F)c3)CC2)cnn1-c1nn2cccc2c(=O)[nH]1` [Q-1823], the half-inhibitory concentration (IC50) in assay [2] was found to be 1 nM; in assay [3], 110 nM.
As for `Cc1c(C(=O)N2CCCC(C(F)(F)F)CC2)cnn1-c1nn2cccc2c(=O)[nH]1` (stereo not shown) [Q-1124], the results for the IC50 in assay [2] and in assay [3] were 1 nM and 35 nM, respectively.
Consider `Cc1c(C(=O)N2CC3CC(C2)N3CC(F)(F)F)nnn1-c1nn2cccc2c(=O)[nH]1` [Q-1225], for which the IC50 in assay [2] was determined as 1 nM; in assay [3], 29 nM.
With `Cc1c(C(=O)N2CCN(c3nc(-c4ccc(Cl)cc4)cs3)CC2)cnn1-c1nn2cccc2c(=O)[nH]1` [Q-1138], the IC50 in assay [2] stood at 20 nM; in assay [3], 360 nM.
For the compound `Cc1c(C(=O)N2CCN(S(=O)(=O)N(C)C)CC2)cnn1-c1nn2cccc2c(=O)[nH]1` [Q-1846], the IC50 in assay [2] turned out to be 1 nM; in assay [3] it was 170 nM.
`Cc1c(C(=O)N2CCN(c3nc(-c4ccccc4C(F)(F)F)cs3)CC2)cnn1-c1nn2cccc2c(=O)[nH]1` [Q-1153]: the values for the IC50 in assay [2] and in assay [3] were 8 nM and 630 nM, respectively.
On to `Cc1c(C(=O)N2CCN(S(=O)(=O)c3ccc(F)cc3Cl)CC2)cnn1-c1nn2cccc2c(=O)[nH]1` [Q-1876], for which the IC50 in assay [2] came out at 1 nM; in assay [3], 110 nM.
`Cc1c(C(=O)N2CCN(c3nc(-c4cccc(C#N)c4)cs3)CC2)cnn1-c1nn2cccc2c(=O)[nH]1` [Q-1181]: the IC50 in assay [2] turned out to be 2 nM; in assay [3], 11 nM.
`CCS(=O)(=O)N1CCN(C(=O)c2cnn(-c3nn4cccc4c(=O)[nH]3)c2C)CC1` [Q-1581]: the IC50 in assay [2] turned out to be 4 nM; in assay [3] it was 170 nM.
As for `Cc1c(C(=O)N2CCC(n3cccc3Cl)CC2)cnn1-c1nn2cccc2c(=O)[nH]1` [Q-1233], the IC50 stood at 1 nM in assay [2] and 23 nM in assay [3].
As to `Cc1c(C(=O)N2CCC(c3cccnc3Cl)CC2)cnn1-c1nn2cccc2c(=O)[nH]1` [Q-1111], the IC50 was determined as 1 nM in assay [2] and 15 nM in assay [3].
As to `Cc1c(C(=O)N2CCN(S(=O)(=O)c3ccccc3F)CC2)cnn1-c1nn2cccc2c(=O)[nH]1` [Q-1799], the IC50 is 1 nM in assay [2] and 100 nM in assay [3].
Take `Cc1c(C(=O)N2CCC(c3ccc(F)nc3)CC2)cnn1-c1nn2cccc2c(=O)[nH]1` [Q-1105]: the IC50 stood at 1 nM in assay [2] and 18 nM in assay [3].
Regarding `Cc1c(C(=O)N2CCC(c3nc(-c4ccccn4)cs3)CC2)cnn1-c1nn2cccc2c(=O)[nH]1` [Q-1099], the IC50 in assay [2] amounted to 1 nM; in assay [3] it was 60 nM.
Take `Cc1c(C(=O)N2CC3CC(C2)N3CCC(F)(F)F)cnn1-c1nn2cccc2c(=O)[nH]1` [Q-1194]: the IC50 in assay [2] came to 2 nM; in assay [3] it was 60 nM.
For the compound `O=C(c1cn(-c2nn3cccc3c(=O)[nH]2)nn1)N1CCC(C2CC2)CC1` [Q-1222], the IC50 turned out to be 1 nM in assay [2] and 25 nM in assay [3].
For `Cc1c(C(=O)N2CCC(c3cccc(F)n3)CC2)cnn1-c1nn2cccc2c(=O)[nH]1` [Q-1117] the same measures were 1 nM and 20 nM.
Turning to `Cc1c(C(=O)N2CCN(c3ncc(-c4ccccc4F)s3)CC2)cnn1-c1nn2cccc2c(=O)[nH]1` [Q-1230], the half-maximal inhibitory concentration (IC50) is 10 nM in assay [2] and 180 nM in assay [3].
Take `CCCS(=O)(=O)N1CCN(C(=O)c2cnn(-c3nn4cccc4c(=O)[nH]3)c2C)CC1` [Q-1797]: the IC50 in assay [2] worked out at 1 nM; in assay [3] it was 79 nM.
`C=C1C2CCCC1CN(C(=O)c1cnn(-c3nn4cccc4c(=O)[nH]3)c1C)C2` [Q-1126]: the IC50 worked out at 1 nM in assay [2] and 48 nM in assay [3].
As for `Cc1c(C(=O)N2CCN(c3ncc(-c4ccc(C#N)cc4)s3)CC2)cnn1-c1nn2cccc2c(=O)[nH]1` [Q-1211], the IC50 in assay [2] turned out to be 10 nM; in assay [3], 160 nM.
As for `Cc1c(C(=O)N2CCN(c3nc(-c4ccnc(F)c4)cs3)CC2)cnn1-c1nn2cccc2c(=O)[nH]1` [Q-1196], the IC50 came to 3 nM in assay [2] and 52 nM in assay [3].
As for `Cc1c(C(=O)N2CCC(c3nc(-c4ccccn4)cs3)CC2)cnn1-c1nc2c(c(=O)[nH]1)CCC2` [Q-1100], the IC50 in assay [2] was 1 nM; in assay [3], 31 nM.
`Cc1c(C(=O)N2CCN(c3nnc(-c4cccc(F)c4)o3)CC2)cnn1-c1nn2cccc2c(=O)[nH]1` [Q-1193]: the IC50 in assay [2] worked out at 7 nM; in assay [3], 160 nM.
As to `Cc1c(C(=O)N2CCc3nc(-c4ccc(C(F)(F)F)cc4)sc3C2)cnn1-c1nn2cccc2c(=O)[nH]1` [Q-1148], the results for the IC50 in assay [2] and in assay [3] were 10 nM and 540 nM, respectively.
Take `O=C(c1cn(-c2nn3cccc3c(=O)[nH]2)nn1)N1CC2(C1)CC(F)(F)C2` [Q-1237]: the results for the IC50 in assay [2] and in assay [3] were 3 nM and 700 nM, respectively.
Taken in the same sequence, the figures for `Cc1c(C(=O)N2CCC3(CCCC3=O)CC2)cnn1-c1nn2cccc2c(=O)[nH]1` [Q-1192] were 1 nM and 40 nM.
For `Cc1c(C(=O)N2CCN(C3CC3F)CC2)cnn1-c1nn2cccc2c(=O)[nH]1` (stereo not shown) [Q-1249], the results for the IC50 in assay [2] and in assay [3] were 2 nM and 46 nM, respectively.
Taken in the same sequence, the figures for `Cc1c(C(=O)N2C[C@H]3CCC[C@@H](C2)[C@H]3CC(F)(F)F)cnn1-c1nn2cccc2c(=O)[nH]1` [Q-1186] were 1 nM and 36 nM.
